System: calcium/calmodulin (Ca/CAM)-independent cGMP PDE
Experiment: Phosphodiesterase activity: in vitro PDE inhibition, modified "batch" method of Thompson and Appleman
Format: biochemical, rabbit
Details: selectivity between Ca/CAM-independent cGMP PDE and cGMP-inhibited cAMP PDE (cAMP IC50 / cGMP IC50)
Description: The calcium/calmodulin (Ca/CAM)-independent cGMP PDE and the cGMP-inhibited cAMP PDE enzymes are obtained from rabbit platelets whilst, of the four major PDE enzymes of the rat kidney, the Ca/CAM-dependent cGMP PDE (fraction I) is isolated.

Structure (SMILES) | SELECTIVITY RATIO | S[…]
CCCn1cnc2c(=O)[nH]c(-c3ccccc3OCC)nc21 [Example 1, 2-(2-Ethoxyphenyl)-9-n-propylpurin-6-one] | >1,030 | –
CCCn1cnc2c(=O)[nH]c(-c3cc(S(=O)(=O)N4CCNCC4)ccc3OCC)nc21 [Example 2, 2-[2-Ethoxy-5-(1-piperazinylsulphonyl)phenyl]-9-n-propylpurin-6-one] | 6,250 | –
CCCn1cnc2c(=O)[nH]c(-c3cc(S(=O)(=O)N4CCN(C)CC4)ccc3OCC)nc21 [Example 3, 2-[2-Ethoxy-5-(4-methyl-1-piperazinylsulphonyl)phenyl]-9-n-propylpurin-6-one] | – | 12,500

From patent publication EP0647227B1, “PURINONE ANTIANGINAL AGENTS” (Pfizer Limited, priority 1992, dated 1994)
